Results reported in US20260184707A1, “PHARMACEUTICAL COMPOUNDS FOR THE TREATMENT OF COMPLEMENT MEDIATED DISORDERS” (ALEXION PHARMACEUTICALS, INC., priority 2022, published 2026).

Molecular target: T1, Human complement C1s enzyme (Homo sapiens, UniProt P09871)
T1 construct: purified from human serum, Complement Technology, Inc; purchased Complement Technology, Inc; host or cells: human serum (plasma-derived native protein)
T1 sequence (P09871 438-688 limits assumed): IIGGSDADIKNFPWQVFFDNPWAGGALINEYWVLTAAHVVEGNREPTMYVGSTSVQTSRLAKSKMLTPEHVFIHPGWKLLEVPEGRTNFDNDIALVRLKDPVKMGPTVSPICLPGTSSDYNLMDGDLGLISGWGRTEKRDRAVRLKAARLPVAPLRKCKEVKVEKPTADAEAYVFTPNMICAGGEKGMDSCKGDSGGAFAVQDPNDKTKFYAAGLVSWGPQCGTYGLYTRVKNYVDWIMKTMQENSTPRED
T1 sequence (P09871 16-437 partner limits assumed): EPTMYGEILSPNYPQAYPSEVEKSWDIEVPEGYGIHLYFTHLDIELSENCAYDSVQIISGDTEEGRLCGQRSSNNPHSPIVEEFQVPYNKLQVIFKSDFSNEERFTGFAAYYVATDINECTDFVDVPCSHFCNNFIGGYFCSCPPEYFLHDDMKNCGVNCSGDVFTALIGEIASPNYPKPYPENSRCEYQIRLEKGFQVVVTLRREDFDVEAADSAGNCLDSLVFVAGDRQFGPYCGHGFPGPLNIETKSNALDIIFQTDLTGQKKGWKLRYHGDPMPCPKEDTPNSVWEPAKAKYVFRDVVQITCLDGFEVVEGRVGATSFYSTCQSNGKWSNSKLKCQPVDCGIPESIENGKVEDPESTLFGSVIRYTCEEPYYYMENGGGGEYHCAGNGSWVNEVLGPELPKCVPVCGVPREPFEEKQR
Assay: Human C1s enzyme assay
Type: biochemical
Conditions: human complement C1s enzyme 1.16 nM, substrate Z-L-Lys-SBzl, A405; read-out: IC50 (Stars)
Method in brief: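 Serum-purified human C1s (1.16 nM final) preincubated 5 min at room temperature with compound in 50 mM Tris, 1 M NaCl, pH 7.5. Z-L-Lys-SBzl and DTNB added at 100 μM each; A405 recorded every 30 s. IC50 from nonlinear regression of reaction rates versus compound concentration.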

**Q.** How did the IC50 turn out when COc1ccccc1-c1ccc(C(=O)Nc2cnc(-c3ccccc3)n(CC(=O)NCc3cc4cnccc4[nH]3)c2=O)cc1 [Compound 213, N-(1-(2-(((1H-pyrrolo[3,2-c]pyridin-2-yl)methyl)amino)-2-oxoethyl)-6-oxo-2-phenyl-1,6-dihydropyrimidin-5-yl)-2′-methoxy-[1,1′-biphenyl]-4-carboxamide] was run?
**A.** < 100 nM

**Q.** How did the IC50 turn out when O=C(Cn1c(-c2ccccc2)ncc(NC(=O)c2ccc(-c3ccccc3F)cc2)c1=O)NCc1cc2cnccc2[nH]1 [Compound 214, N-(1-(2-(((1H-pyrrolo[3,2-c]pyridin-2-yl)methyl)amino)-2-oxoethyl)-6-oxo-2-phenyl-1,6-dihydropyrimidin-5-yl)-2′-fluoro-[1,1′-biphenyl]-4-carboxamide] was run?
**A.** < 100 nM

**Q.** O=C(Cn1c(-c2ccccc2)ncc(NC(=O)c2ccc(Oc3ccccc3)s2)c1=O)NCc1cc2cnccc2[nH]1 [Compound 215, N-(1-(2-(((1H-pyrrolo[3,2-c]pyridine-2-yl)methyl)amino)-2-oxoethyl)-6-oxo-2-phenyl-1,6-dihydropyrimidin-5-yl)-5-phenoxythiophene-2-carboxamide] was tested. Which IC50 did it give?
**A.** < 100 nM

**Q.** For O=C(Cn1c(-c2ccc(N3CCOCC3)cc2)ncc(NCc2ccc3oc4ccccc4c3c2)c1=O)NCc1cc2cnccc2[nH]1 [Compound 216, N-((1H-pyrrolo[3,2-c]pyridin-2-yl)methyl)-2-(5-((dibenzo [b,d]furan-2-ylmethyl)amino)-2-(4-morpholinophenyl)-6-oxo-pyrimidin-1(6H)-yl)acetamide], which IC50 is on record?
**A.** < 100 nM

**Q.** How did the IC50 turn out when COc1cccc(-c2ccc(C(=O)Nc3cnc(-c4ccccc4)n(CC(=O)NCc4cc5cnccc5[nH]4)c3=O)cc2F)c1 [Compound 217, N-(1-(2-(((1H-pyrrolo[3,2-c]pyridine-2-yl)methyl)amino)-2-oxoethyl)-6-oxo-2-phenyl-1,6-dihydropyrimidin-5-yl)-2-fluoro-3′-methoxy-[1,1′-biphenyl]-4-carboxamide] was run?
**A.** < 100 nM

**Q.** With O=C(Cn1c(-c2ccccc2)ncc(NC(=O)c2csc(-c3ccccc3)c2)c1=O)NCc1cc2cnccc2[nH]1 [Compound 218, N-(1-(2-(((1H-pyrrolo[3,2-c]pyridin-2-yl)methyl)amino)-2-oxoethyl)-6-oxo-2-phenyl-1,6-dihydropyrimidin-5-yl)-5-phen-ylthiophene-3-carboxamide] as the molecule, how does the IC50 read?
**A.** < 100 nM

**Q.** For O=C(Cn1c(-c2ccccc2)ncc(NC(=O)c2noc(-c3ccccc3)n2)c1=O)NCc1cc2cnccc2[nH]1 [Compound 219, N-(1-(2-(((1H-pyrrolo[3,2-c]pyridine-2-yl)methyl)amino)-2-oxoethyl)-6-oxo-2-phenyl-1,6-dihydropyrimidin-5-yl)-5-phenyl-1,2,4-oxadiazole-3-carboxamide], which IC50 is on record?
**A.** < 100 nM

**Q.** For O=C(Cn1c(-c2ccccc2)ncc(NC(=O)c2ccc(-c3ccccc3)s2)c1=O)Nc1nccs1 [Compound 220, N-(6-oxo-1-(2-oxo-2-(thiazol-2-ylamino)ethyl)-2-phenyl-1,6-dihydropyrimidin-5-yl)-5-phen-ylthiophene-2-carboxamide], which IC50 is on record?
**A.** < 100 nM

**Q.** With O=C(Cn1c(-c2ccccc2)ncc(NC(=O)c2n[nH]c(-c3ccccc3)n2)c1=O)NCc1cc2cnccc2[nH]1 [Compound 221, N-(1-(2-(((1H-pyrrolo[3,2-c]pyridine-2-yl)methyl)amino)-2-oxoethyl)-6-oxo-2-phenyl-1,6-dihydropyrimidin-5-yl)-5-phenyl-1H-1,2,4-triazole-3-carboxamide] as the molecule, how does the IC50 read?
**A.** < 100 nM

**Q.** O=C(Cn1c(-c2ccccc2)ncc(NC(=O)c2cccc(-c3ncco3)c2)c1=O)NCc1cc2cnccc2[nH]1 [Compound 222, N-(1-(2-(((1H-pyrrolo[3,2-c]pyridine-2-yl)methyl)amino)-2-oxoethyl)-6-oxo-2-phenyl-1,6-dihydropyrimidin-5-yl)-3-(oxazol-2-yl)benzamide] was tested. Which IC50 did it give?
**A.** > 1000 nM

**Q.** O=C(Cn1c(-c2ccccc2)ncc(NC(=O)c2nnc(-c3ccccc3)o2)c1=O)NCc1cc2cnccc2[nH]1 [Compound 223, N-(1-(2-(((1H-pyrrolo[3,2-c]pyridine-2-yl)methyl)amino)-2-oxoethyl)-6-oxo-2-phenyl-1,6-dihydropyrimidin-5-yl)-5-phenyl-1,3,4-oxadiazole-2-carboxamide] was tested. Which IC50 did it give?
**A.** < 100 nM

**Q.** With O=C(Cn1c(-c2ccccc2)ncc(Nc2ccc(-c3ccccc3)cc2)c1=O)NCc1cc2cnccc2[nH]1 [Compound 224, N-((1H-pyrrolo[3,2-c]pyridin-2-yl)methyl)-2-(5-([1,1′-biphenyl]-4-ylamino)-6-oxo-2-phenylpyrimidin-1(6H)-yl)-acetamide] as the molecule, how does the IC50 read?
**A.** 100 to 1000 nM

**Q.** With O=C(Cn1c(-c2ccc(OCc3ccccn3)cc2)ncc(NC(=O)c2ccc(-c3ccccc3)cc2)c1=O)NCc1cc2cnccc2[nH]1 [Compound 225, N-[6-Oxo-1-[2-oxo-2-(1H-pyrrolo[3,2-c]pyridine-2-ylmethylamino)ethyl]-2-[4-(2-pyridylmethoxy)phenyl]pyrimidin-5-yl]-4-phenyl-benzamide] as the molecule, how does the IC50 read?
**A.** < 100 nM

**Q.** O=C(Cn1c(-c2ccc(F)c(F)c2)ncc(NC(=O)c2ccc(-c3ccccc3)cc2)c1=O)NCc1cc2cnccc2[nH]1 [Compound 226, N-(1-(2-(((1H-pyrrolo[3,2-c]pyridin-2-yl)methyl)amino)-2-oxoethyl)-2-(3,4-difluorophen-yl)-6-oxo-1,6-dihydropyrimi-din-5-yl)-[1,1′-biphenyl]-4-carboxamide] was tested. Which IC50 did it give?
**A.** < 100 nM

**Q.** O=C(Cn1c(-c2ccccc2)ncc(NC(=O)c2csc(-c3cccs3)n2)c1=O)NCc1cc2cnccc2[nH]1 [Compound 227, N-(1-(2-(((1H-pyrrolo[3,2-c]pyridin-2-yl)methyl)amino)-2-oxoethyl)-6-oxo-2-phenyl-1,6-dihydropyrimidin-5-yl)-2-(thiophen-2-yl)thiazole-4-carboxamide] was tested. Which IC50 did it give?
**A.** < 100 nM

**Q.** How did the IC50 turn out when O=C(Cn1c(-c2ccccc2)ncc(Nc2ccc(Oc3ccccc3)cc2)c1=O)NCc1cc2cnccc2[nH]1 [Compound 228, N-((1H-pyrrolo[3,2-c]pyridin-2-yl)methyl)-2-(6-oxo-5-((4-phenoxyphenyl)amino)-2-phenylpyrimidin-1(6H)-yl)-acetamide] was run?
**A.** < 100 nM

**Q.** How did the IC50 turn out when C[C@@H](Nc1cnc(-c2cccc(F)c2)n(CC(=O)NCc2cc3cnccc3[nH]2)c1=O)c1ccc2oc3ccccc3c2c1 [Compound 229, (R)-N-((1H-pyrrolo[3,2-c]pyr-idin-2-yl)methyl)-2-(5-((1-(dibenzo[b,d]furan-2-yl)ethyl)-amino)-2-(3-fluorophenyl)-6-oxopyrimidin-1(6H)-yl)acet-amide] was run?
**A.** < 100 nM

**Q.** Which IC50 does the source give for C[C@@H](Nc1cnc(-c2ccc(S(C)(=O)=O)cc2)n(CC(=O)NCc2cc3cnccc3[nH]2)c1=O)c1ccc2oc3ccccc3c2c1 [Compound 230, (R)-N-((1H-pyrrolo[3,2-c]pyr-idin-2-yl)methyl)-2-(5-((1-(dibenzo[b,d]furan-2-yl)ethyl)-amino)-2-(4-(methylsulfonyl)-phenyl)-6-oxopyrimidin-1(6H)-yl)acetamide] here?
**A.** < 100 nM

**Q.** With O=C(Cn1c(-c2ccccc2)ncc(NC(=O)c2coc(-c3cccnc3)n2)c1=O)NCc1cc2cnccc2[nH]1 [Compound 231, N-(1-(2-(((1H-pyrrolo[3,2-c]pyridine-2-yl)methyl)amino)-2-oxoethyl)-6-oxo-2-phenyl-1,6-dihydropyrimidin-5-yl)-2-(pyridine-3-yl)oxazole-4-carboxamide] as the molecule, how does the IC50 read?
**A.** < 100 nM

**Q.** How did the IC50 turn out when O=C(Cn1c(-c2ccco2)ncc(NCc2ccc3oc4ccccc4c3c2)c1=O)NCc1cc2cnccc2[nH]1 [Compound 232, N-((1H-pyrrolo[3,2-c]pyridin-2-yl)methyl)-2-(5-((dibenzo [b,d]furan-2-ylmethyl)amino)-2-(furan-2-yl)-6-oxopyrimidin-1(6H)-yl)acetamide] was run?
**A.** < 100 nM

**Q.** How did the IC50 turn out when O=C(Cn1c(-c2ccccc2)ncc(NCc2coc(-c3ccccc3)n2)c1=O)NCc1cc2cnccc2[nH]1 [Compound 233, N-((1H-pyrrolo[3,2-c]pyridin-2-yl)methyl)-2-(6-oxo-2-phen-yl-5-(((2-phenyloxazol-4-yl)-methyl)amino)pyrimidin-1(6H)-yl)acetamide] was run?
**A.** < 100 nM

**Q.** Which IC50 does the source give for O=C(Cn1c(-c2ccccc2)ncc(Nc2ccc3oc4ccccc4c3c2)c1=O)NCc1cc2cnccc2[nH]1 [Compound 234, N-((1H-pyrrolo[3,2-c]pyridin-2-yl)methyl)-2-(5-(dibenzo [b,d]furan-2-ylamino)-6-oxo-2-phenylpyrimidin-1(6H)-yl)-acetamide] here?
**A.** < 100 nM

**Q.** For O=C(Cn1c(-c2ccccc2)ncc(NC(=O)c2ccc(-c3ccccc3)s2)c1=O)Nc1nc2cnccc2s1 [Compound 235, N-(6-ox0-1-(2-oxo-2-(thiazolo [4,5-c]pyridin-2-ylamino)-ethyl)-2-phenyl-1,6-dihydro-pyrimidin-5-yl)-5-phenylthio-phene-2-carboxamide], which IC50 is on record?
**A.** > 1000 nM

**Q.** For O=C(Cn1c(-c2ccccc2)ncc(Nc2cccc(-c3ccc(F)cc3)c2)c1=O)NCc1cc2cnccc2[nH]1 [Compound 236, N-((1H-pyrrolo[3,2-c]pyridin-2-yl)methyl)-2-(5-((4′-fluoro-[1,1′-biphenyl]-3-yl)amino)-6-oxo-2-phenylpyrimidin-1(6H)-yl)acetamide], which IC50 is on record?
**A.** < 100 nM
